Experiments:
Homo sapiens [1] = species: Homo sapiens; test: Tested for inhibition of platelet aggregation induced by arachidonic acid (AAIPA) in human platelet rich plasma; type: functional; conditions: read-out: I50
Homo sapiens [2] = species: Homo sapiens; test: Tested for inhibition of platelet aggregation induced by U-46,619 (U-IPA) in human platelet rich plasma; type: functional; conditions: read-out: I50
Thromboxane A2 receptor = biological target: T1, Thromboxane A2 receptor (Homo sapiens, UniProt P21731); test: Dissociation constant was determined from radioligand binding studies in human platelet membranes using Thromboxane A2 receptor radioligand [3H]-SQ 29,548.; type: cell membranes
T1 sequence (P21731 whole entry): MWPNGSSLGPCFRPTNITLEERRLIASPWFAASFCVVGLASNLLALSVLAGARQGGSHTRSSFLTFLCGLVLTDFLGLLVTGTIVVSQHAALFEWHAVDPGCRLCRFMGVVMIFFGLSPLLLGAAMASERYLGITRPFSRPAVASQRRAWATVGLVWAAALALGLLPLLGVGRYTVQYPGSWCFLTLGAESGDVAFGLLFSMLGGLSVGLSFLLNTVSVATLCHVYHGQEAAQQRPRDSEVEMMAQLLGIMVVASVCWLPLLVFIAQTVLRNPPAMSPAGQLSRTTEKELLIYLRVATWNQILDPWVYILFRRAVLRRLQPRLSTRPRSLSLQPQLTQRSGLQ

Structure (SMILES) | IC50 (Homo sapiens [1]) | IC50 (Homo sapiens [2]) | Kd (Thromboxane A2 receptor)
O=C(O)Cc1ccccc1Cc1ccccc1-c1nc(C(=O)NCCCCC2CCCCC2)co1 | 67000 nM | 330000 nM | 
O=C(O)CCCc1ccccc1Cc1ccccc1-c1nc(C(=O)NCCCCC2CCCCC2)co1 | 58 nM | 630 nM | 
O=C(O)CCc1cccc(Cc2ccccc2-c2nc(C(=O)NCCCCC3CCCCC3)co2)c1 | 470 nM | 2000 nM | 

Further compounds by falling IC50 (Homo sapiens [1]), results first:

IC50 (Homo sapiens [1]) | IC50 (Homo sapiens [2]) | Kd (Thromboxane A2 receptor) | Structure (SMILES)
2000 nM | 6000 nM |  | O=C(O)Cc1cccc(Cc2ccccc2-c2nc(C(=O)NCCCCC3CCCCC3)co2)c1
31 nM | 110 nM | 19 nM | O=C(O)CCc1ccccc1Cc1ccccc1-c1nc(C(=O)NCCCCC2CCCCC2)co1

Source: ChEMBL document CHEMBL1152043, “Interphenylene phenyl oxazoles: novel, potent thromboxane receptor antagonists” (Bioorg Med Chem Lett, 1992)
